Converted amounts (≈) assume the structure as drawn.
How the values were obtained:
[1] = Solubility (shaking flask); format: physicochemical; settings: phosphate buffer solution (PBS), aqueous buffer, thermodynamic from solid; PBS; 37° C. for 24 hours
Procedure: The solubility for certain compounds were determined using the following protocol and procedure. 1) The solution, sterile water or phosphate buffer solution (PBS), was added to the test compound tube to make the final concentration 10 mg/mL. 2) The sample tube was vortexed and incubated at 37° C. for 24 hours. During the incubation period, the sample tube was vortexed several times. 3) After the incubation, vortex the tube and centrifuge the tube at 13,000 rpm for 10 mins using an Eppendorf Centrifuge Model 5415C. If the solution was still cloudy, centrifuge it for longer until a clear supernatant was achieved. 4) The supernatant was diluted to 1×, 10× and 100× in 50% ACN in water. 5) A six point standard curve was prepared separately to make the final concentrations of 1 μg/mL, 5 μg/mL, 10 μg/mL, 20 μg/mL, 40 μg/mL and 60 μg/mL. 6) Samples were quantified using an HPLC with UV detector. 7) From the three concentrations of 1×, 10× and 100× supernatant, choose the value, which was fallen into the standard curve range (1 ug/mL-60 ug/mL), as the final result. If all the results were out of the curve range, adjust using a dilution factor to make the value within the curve range.

[2] = Chemical stability in acidic solution (acid stability); format: physicochemical; settings: pH 4.5 chemical solution; pH 4.5, 37° C.; read-out: Acid Stability (T ½, mins @ pH 4.5)
Caco-2 cells = test: in vitro; format: in vitro ADME
Procedure: (§1) Caco-2 cells were maintained in Dulbecco's Modification of Eagle's Medium (DMEM) with sodium pyruvate, Glutmax supplemented with 1% Pen/Strep, 1% NEAA and 10% fetal bovine serum in an incubator set at 37° C., 90% humidity and 5% CO2. Caco-2 cells between passage 43 and 61 were grown to confluence over at least 21-days on 24 well PET (polyethylene-terephthalate) plates (BD Biosciences). Experiments were run using a new HBSS donor buffer from Invitrogen containing additional 10 mM HEPES, 15 mM Glucose with pH adjusted to pH 6.5. The receiver well used HBSS buffer supplemented with 1% BSA and the pH adjusted to pH 7.4. After an initial equilibration with transport buffer, TEER values were read to test membrane integrity. The experiment was started by the addition of buffers containing test compounds and 100 μl of solution is taken at 1 and 2 hrs from the receiver compartment. Removed buffer was replaced with fresh buffer and a correction was applied to all calculations for the removed material. Each compound was tested in 2 separate replicate wells for each condition. All samples were immediately collected into 400 μl 100% acetonitrile acid to precipitate protein and stabilize test compounds. Cells were dosed on the apical or basolateral side to determine forward (A to B) and reverse (B to A) permeability. Permeability through a cell free trans-well was also determined as a measure of cellular permeability through the membrane and non-specific binding. To test for non-specific binding and compound instability the total amount of drug was quantitated at the end of the experiment and compared to the material present in the original dosing solution as a percent recovery. Samples were analyzed by LC/MS/MS.
(§2) The apparent permeability, Papp, and % recovery were calculated as follows: […]
(§3) where, • dR/dt is the slope of the cumulative concentration in the receiver compartment versus time in μM/s based on receiver concentrations measured at 60 and 120 minute. • Vr and Vd is the volume in the receiver and donor compartment in cm^3, respectively. • A is the area of the cell monolayer (0.33 cm^2). • D0 and D120 is the measured donor concentration at the beginning and end of the experiment, respectively. • R120 is the receiver concentration at the end of the experiment (120 minutes).
(§4) The apparent permeability for certain compounds were determined using the above procedure.

in vitro = in vitro ADME; settings: human, Caco-2
Procedure: as §1, §2, §3, §4

SMILES | solubility at 24 h [1] | half-life at 1 µg/mL [2] | Permeability Papp (A to B) × 10^−6 cm/s (Caco-2 A-B) (Caco-2 cells) | Papp A→B at 2 h (in vitro)
CC(C)C(=O)OC[C@H]1O[C@@H](n2cc3c4c(ncnc42)NC(=O)C=C3N)[C@@](C)(O)[C@@H]1O (stereo in doubt) [Compound 105, Isobutyric acid 5-(9-amino-7-oxo-6,7-dihydro-2,3,5,6-tetraaza-benzo[cd]azulen-2-yl)-3,4-dihydroxy-4-methyl-tetrahydro-furan-2-ylmethylester] | 9060 µg/mL (≈ 21700 µM) | < 30 min | high | –
CC(C)C(=O)OC[C@H]1O[C@@H](n2cc3c4c(ncnc42)NC(=O)C=C3N)[C@@](C)(O)[C@@H]1OC(=O)C(C)C (stereo in doubt) [Compound 134, Isobutyric acid 5-(9-amino-7-oxo-6,7-dihydro-2,3,5,6-tetraaza-benzo[cd]azulen-2-yl)-4-hydroxy-3-isobutyryloxy-4-methyl-tetrahydro-furan-2-ylmethyl ester] | 67 µg/mL (≈ 137 µM) | < 30 min | low | –
CC(=O)N[C@H](C(=O)OC[C@H]1O[C@@H](n2cc3c4c(ncnc42)NC(=O)C=C3N)C(C)(O)[C@@H]1O)C(C)C (some centres unmarked) [Compound 124, 2-Acetylamino-3-methyl-butyric acid5-(9-amino-7-oxo-6,7-dihydro-2,3,5,6-tetraaza-benzo[cd]azulen-2-yl)-3,4-dihydroxy-4-methyl-tetrahydro-furan-2-ylmethyl ester] | 6250 µg/mL (≈ 12800 µM) | < 30 min | low | –
CC(C)C(=O)OC[C@H]1O[C@@H](n2cc3c4c(ncnc42)NC(=O)C=C3N)[C@@]2(C)OC(=O)O[C@H]12 [Compound 106, Isobutyric acid 6-(9-amino-7-oxo-6,7-dihydro-2,3,5,6-tetraaza-benzo[cd]azulen-2-yl)-6a-methyl-2-oxo-tetrahydro-furo[3,4-d][1,3]dioxol-4-ylmethyl ester] | 65 µg/mL (≈ 147 µM) | < 30 min | high | –
CC(C)C(=O)O[C@@H]1[C@@H](CO)O[C@@H](n2cc3c4c(ncnc42)NC(=O)C=C3N)C1(C)O (stereo in doubt) [Compound 115, Isobutyric acid 5-(9-amino-7-oxo-6,7-dihydro-2,3,5,6-tetraaza-benzo[cd]azulen-2-yl)-4-hydroxy-2-hydroxymethyl-4-methyl-tetrahydro-furan-3-yl ester] | 134 µg/mL (≈ 321 µM) | < 30 min | high | –
CC1(O)C(O)C(CO)OC1n1cc2c3c(ncnc31)NC(=O)C=C2N (centres unmarked) [Compound 100, 9-amino-2-(3,4-dihydroxy-5-hydroxymethyl-3-methyl-tetrahydro-furan-2-yl)-2,6-dihydro-2,3,5,6-tetraaza-benzo[cd]azulen-7-one, reference compound] | 11 µg/mL (≈ 31.7 µM) | < 15 min | low | –
CCCCCC(=O)O[C@@H]1[C@@H](CO)O[C@@H](n2cc3c4c(ncnc42)NC(=O)C=C3N)[C@]1(C)O [Compound 113, Hexanoic acid 5-(9-amino-7-oxo-6,7-dihydro-2,3,5,6-tetraaza-benzo[cd]azulen-2-yl)-4-hydroxy-2-hydroxymethyl-4-methyl-tetrahydro-furan-3-yl ester] | 67 µg/mL (≈ 150 µM) | < 30 min | medium | –
CCCCCOC(=O)NC1=CC(=O)Nc2ncnc3c2c1cn3[C@@H]1O[C@H](CO)[C@@H](O)[C@@]1(C)O [Compound 138, [2-(3,4-Dihydroxy-5-hydroxymethyl-3-methyl-tetrahydro-furan-2-yl)-7-oxo-6,7-dihydro-2H-2,3,5,6-tetraaza-benzo[cd]azulen-9-yl]-carbamic acidpentyl ester] | 32 µg/mL (≈ 69.3 µM) | > 120 min | medium | –
CC(=O)OC[C@H]1O[C@@H](n2cc3c4c(ncnc42)NC(=O)C=C3N)[C@@](C)(O)[C@@H]1OC(C)=O (stereo in doubt) [Compound 135, Acetic acid 3-acetoxy-5-(9-amino-7-oxo-6,7-dihydro-2,3,5,6-tetraaza-benzo[cd]azulen-2-yl)-4-hydroxy-4-methyl-tetrahydro-furan-2-ylmethylester] | 7280 µg/mL (≈ 16900 µM) | < 15 min | medium | –
CCCCCC(=O)OC[C@H]1O[C@@H](n2cc3c4c(ncnc42)NC(=O)C=C3N)[C@@](C)(O)[C@@H]1O (stereo in doubt) [Compound 101, Hexanoic acid 5-(9-amino-7-oxo-6,7-dihydro-2,3,5,6-tetraaza-benzo[cd]azulen-2-yl)-3,4-dihydroxy-4-methyl-tetrahydro-furan-2-ylmethylester] | 137 µg/mL (≈ 308 µM) | < 30 min | high | –
CC(=O)OC[C@H]1O[C@@H](n2cc3c4c(ncnc42)NC(=O)C=C3N)[C@@]2(C)OC(=O)O[C@H]12 [Compound 108, Acetic acid 6-(9-amino-7-oxo-6,7-dihydro-2,3,5,6-tetraaza-benzo[cd]azulen-2-yl)-6a-methyl-2-oxo-tetrahydro-furo[3,4-d][1,3]dioxol-4-ylmethyl ester] | 28 µg/mL (≈ 67.4 µM) | < 15 min | medium | –
CC(=O)OC[C@H]1O[C@@H](n2cc3c4c(ncnc42)NC(=O)C=C3N)C(C)(OC(C)=O)[C@@H]1OC(C)=O (stereo in doubt) [Compound 117, Acetic acid 4-acetoxy-2-acetoxymethyl-5-(9-amino-7-oxo-6,7-dihydro-2,3,5,6-tetraaza-benzo[cd]azulen-2-yl)-4-methyl-tetrahydro-furan-3-yl ester] | 510 µg/mL (≈ 1080 µM) | – | – | > 1 ×10⁻⁶ cm/s
CC(C)C(=O)OCOC(=O)NC1=CC(=O)Nc2ncnc3c2c1cn3[C@@H]1O[C@H](CO)[C@@H](O)[C@]1(C)O (stereo in doubt) [Compound 109, Isobutyric acid 2-(3,4-dihydroxy-5-hydroxymethyl-3-methyl-tetrahydro-furan-2-yl)-7-oxo-6,7-dihydro-2H-2,3,5,6-tetraaza-benzo[cd]azulen-9-ylcarbamoyloxymethyl ester] | 215 µg/mL (≈ 437 µM) | > 120 min | low | –
CC12OC(=O)O[C@@H]1[C@@H](CO)O[C@H]2n1cc2c3c(ncnc31)NC(=O)C=C2N (some centres unmarked) [Compound 116, 9-Amino-2-(6-hydroxymethyl-3a-methyl-2-oxo-tetrahydro-furo[3,4-d][1,3]dioxol-4-yl)-2,6-dihydro-2,3,5,6-tetraaza-benzo[cd]azulen-7-one] | 202 µg/mL (≈ 541 µM) | < 30 min | low | –

Reference: US20090062223A1, “AMINO TRICYCLIC-NUCLEOSIDE COMPOUNDS, COMPOSITIONS, AND METHODS OF USE” (GENELABS TECHNOLOGIES, INC., priority 2007, published 2009)
